Assay results: article PMC12095868, “The Fsr transporter of Sinorhizobium meliloti contributes to antimicrobial resistance and symbiosis with alfalfa” (Microbiology, 2025)

Target: T1, Fsr (Sinorhizobium meliloti, UniProt Q92RK8)
T1 construct: native full-length protein in S. meliloti 1021 cells, compared with fsr::loxSp null mutant; 398 residues; MFS membrane transporter
Experiment: fluorometric accumulation and efflux assay, wild-type versus fsr null mutant cells
Type: cell-based
Conditions: whole cells, 10 ug/ml EtBr, 0.4% glucose as energy source; CCCP 25 ug/ml as decoupler in parallel; proton-dependent efflux

T1 sequence (Q92RK8 entry or part of it): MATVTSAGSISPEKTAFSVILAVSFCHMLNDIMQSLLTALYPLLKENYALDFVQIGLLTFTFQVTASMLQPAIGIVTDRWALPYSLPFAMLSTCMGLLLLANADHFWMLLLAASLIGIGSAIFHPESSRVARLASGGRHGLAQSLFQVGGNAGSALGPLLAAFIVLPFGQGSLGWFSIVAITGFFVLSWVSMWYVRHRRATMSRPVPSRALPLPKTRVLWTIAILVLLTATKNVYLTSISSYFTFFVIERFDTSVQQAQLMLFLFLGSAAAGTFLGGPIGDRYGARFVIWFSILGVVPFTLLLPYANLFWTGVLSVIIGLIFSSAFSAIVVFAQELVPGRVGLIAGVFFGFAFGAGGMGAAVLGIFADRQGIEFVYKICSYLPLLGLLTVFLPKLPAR

For CC[n+]1c(-c2ccccc2)c2cc(N)ccc2c2ccc(N)cc21 [EtBr, ethidium bromide], the “fluorometric accumulation and efflux assay, wild-type versus fsr null mutant cel” value was “The rate and extent of EtBr efflux were higher in the wild type”.
